The nature of test [1]: Forward looking example: Metabolic Syndrome patient with chronic environmental antigen stimulation. The conditions noted are these: sublingual once every two weeks, with diet, exercise, ACE Inhibitor, Fluconazole; over a year. The format is in vivo, human. The text has this: The further application of the instant invention is illustrated by the following forward looking examples.
• A young person presents to their physician, on annual physical examination, with a weight gain of 50 pounds, is found to have high blood pressure, and reports vaginal pruritis. Over the past few years, they have lived in an area of major traffic congestion (near an oil refinery). The physician does a physical examination and discovers unusual black pigmented areas in their neck creases (acanthosis nigricans) and orders laboratory tests, including fasting and 2-hour blood glucose, serum triglycerides, serum insulin, a cholesterol profile, C-Reactive Protein, serum fibrinogen, and a vaginal smear for candidiasis. • They are found to have impaired glucose tolerance, elevated serum triglycerides, low HDL and high […] and high C-Reactive Protein and fibrinogen levels. Their vaginal smear is positive for candida albicans. • The physician knows that they are seeing a case of the Metabolic Syndrome which progresses to Diabetes Mellitus and Coronary Heart Disease. They prescribe a weight reduction diabetic diet, physical exercise, an ACE Inhibitor, and Fluconazole. […] They continue their diet and physical exercise and loses weight. They require less high blood pressure medication. The physician continues to monitor their cell-mediated immune function, blood glucose levels, lipid profile, and measures of inflammation, and adjusts their medications appropriately. • The patient continues to lose weight to reach their target weight, blood pressure is controlled, blood glucose is normalized, and their risk of diabetes mellitus and coronary heart disease is reduced.

The conditions of test [2]: FEBS LET. 383:18 (1996); cited from earlier work.

Residues, ends and D or L forms follow the SMILES beside them.

`N[C@@H](Cc1ccc(O)cc1)C(=O)NCC(=O)O` [YG, L-tyrosylglycine]: in test [1], the Blood glucose result is “changes toward normal”, the “C-Reactive Protein” value was “reduced” and the Cholesterol level entry is “reduced”. Besides, in test [2], the “Immunological activity in vitro” value is “immunologically active”.
As for `N[C@@H](Cc1ccc(O)cc1)C(=O)NCC(=O)NCC(=O)O` [YGG, L-tyrosylglycylglycine] (H-Tyr-Gly-Gly-OH), the “Immunological activity in vitro” value in test [2] is “immunologically active”.

These data come from patent US7632818B2, “Method for treating conditions associated with the Metabolic Syndrome (Syndrome X)” (priority 2003, dated 2009).
